5 compounds from publication PMC11259132, “Tyrosine phenol-lyase inhibitor quercetin reduces fecal phenol levels in mice” (PNAS Nexus, 2024) can be followed below.

The term Ki denotes a dissociation constant, usually derived from enzyme kinetics or from competition with a known ligand.

Each structure is given as a SMILES string. Like-named read-outs stand apart in the source and are kept apart here.

What all share (assay type): biochemical
The target in assay [1] is T1, Tyrosine phenol-lyase (TPL) (Morganella morganii, UniProt J7TAF3).
T1 construct: recombinant TPL from M. morganii ssp. morganii (JCM1672), pET-15b

Assay [2] addresses T1, Tyrosine phenol-lyase (TPL). Put plainly: recombinant TPL assay, phenol by LC-MS; Lineweaver-Burk kinetics.
Assay [3] deals with T2, Tyrosine phenol-lyase (TPL) (Citrobacter koseri, UniProt A8AM34).
T2 construct: recombinant TPL from C. koseri (JCM1658), pET-15b
Description: recombinant TPL assay at […] inhibitor, phenol by LC-MS.

T1 sequence (J7TAF3 1-456): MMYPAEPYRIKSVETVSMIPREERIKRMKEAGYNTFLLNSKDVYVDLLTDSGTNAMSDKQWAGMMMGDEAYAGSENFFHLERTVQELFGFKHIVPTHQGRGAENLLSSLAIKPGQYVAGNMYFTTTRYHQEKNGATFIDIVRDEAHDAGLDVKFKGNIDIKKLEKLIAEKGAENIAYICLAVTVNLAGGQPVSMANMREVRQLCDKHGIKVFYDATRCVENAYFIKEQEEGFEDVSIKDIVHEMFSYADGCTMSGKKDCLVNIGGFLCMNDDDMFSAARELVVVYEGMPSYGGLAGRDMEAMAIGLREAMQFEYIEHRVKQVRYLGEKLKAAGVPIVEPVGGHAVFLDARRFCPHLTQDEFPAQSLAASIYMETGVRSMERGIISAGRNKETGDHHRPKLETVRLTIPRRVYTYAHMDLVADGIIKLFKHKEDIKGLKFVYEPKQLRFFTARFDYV
T2 sequence (A8AM34 1-465): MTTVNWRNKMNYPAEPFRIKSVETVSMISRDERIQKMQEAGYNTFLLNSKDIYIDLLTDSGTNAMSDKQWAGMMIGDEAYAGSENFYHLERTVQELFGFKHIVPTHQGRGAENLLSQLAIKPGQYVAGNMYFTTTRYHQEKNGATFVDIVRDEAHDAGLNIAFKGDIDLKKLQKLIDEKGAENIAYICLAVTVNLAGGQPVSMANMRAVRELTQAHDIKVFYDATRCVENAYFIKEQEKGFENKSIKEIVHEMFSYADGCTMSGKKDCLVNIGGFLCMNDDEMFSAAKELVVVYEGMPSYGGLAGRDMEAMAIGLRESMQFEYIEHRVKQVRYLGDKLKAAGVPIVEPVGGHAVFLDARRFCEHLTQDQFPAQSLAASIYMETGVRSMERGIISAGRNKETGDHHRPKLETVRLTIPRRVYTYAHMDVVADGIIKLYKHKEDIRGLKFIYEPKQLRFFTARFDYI

As to `O=c1cc(-c2ccc(O)c(O)c2)oc2cc(O)cc(O)c12` [luteolin], the “recombinant TPL assay at 500 μM inhibitor, phenol by LC-MS” value in assay [1] was “structural analogs of quercetin, including taxifolin, kaempferol, luteolin, and myricetin, significantly inhibited TPL-catalyzed phenol production”.
The same measure, in the same setting: with `O=C1c2c(O)cc(O)cc2O[C@H](c2ccc(O)c(O)c2)[C@H]1O` [taxifolin] the entry was “structural analogs of quercetin, including taxifolin, kaempferol, luteolin, and myricetin, significantly inhibited TPL-catalyzed phenol production”.
For the compound `N[C@@H](Cc1ccc(O)cn1)C(=O)O` [2-aza-Tyr], the Ki in assay [2] (read-out: Ki) is 42 µM.
As for `O=c1c(O)c(-c2ccc(O)cc2)oc2cc(O)cc(O)c12` [kaempferol], the “recombinant TPL assay at 500 μM inhibitor, phenol by LC-MS” value in assay [1] is “structural analogs of quercetin, including taxifolin, kaempferol, luteolin, and myricetin, significantly inhibited TPL-catalyzed phenol production”.
Consider `O=c1c(O)c(-c2ccc(O)c(O)c2)oc2cc(O)cc(O)c12` [quercetin], for which the “recombinant TPL assay at 500 μM inhibitor, phenol by LC-MS” value in assay [3] is reported as “The strongest inhibitory activity of quercetin was confirmed using another recombinant TPL isolated from Citrobacter koseri (JCM1658; Fig. 1B)”. In addition, the inhibition constant (Ki) in assay [2] was found to be 19.9 µM.
